This note sets out measurements from patent US20100267743A1, “3-(PHENOXYPYRROLIDIN-3-YL-METHYL)HETEROARYL, 3-(PHENYLPYRROLIDIN-3-YLMETHOXY)HETEROARYL, AND 3-(HETEROARYLPYRROLIDIN-3-YLMETHOXY)HETEROARYL COMPOUNDS” (priority 2009, published 2010).

Marks after values point to notes of the source that are not given here. Some results are limits rather than exact numbers.

Assay [1] has as its target SERT (Homo sapiens, UniProt P31645). The assay can be described thus: hSERT radioligand binding assay (3H-citalopram). More on the design: expressed in transfected cells; host or cells: HEK-293. To be noted: hSERT membranes (HEK-293), 1.0 nM 3H-citalopram; for Ki: read-out: SERT pKi (converted). The procedure: (§1) Membrane radioligand binding assays were used to measure inhibition of labeled ligand (^3H-citalopram or ^3H-nisoxetine or ^3H-WIN35428) binding to membranes prepared from cells expressing the respective human recombinant transporter (hSERT or hNET or hDAT) in order to determine the pKi values of test compounds at the transporters.
(§2) Recombinant human embryonic kidney (HEK-293) derived cell lines stably transfected with hSERT or hNET, respectively, were grown in DMEM medium supplemented with 10% dialyzed FBS (for hSERT) or FBS (for hNET), 100 μg/ml penicillin, 100 μg/ml streptomycin, 2 mM L-glutamine and 250 μg/ml of the aminoglycoside antibiotic G418, in a 5% CO2 humidified incubator at 37° C. When cultures reached 80% confluence, the cells were washed thoroughly in PBS (without […] and Mg^2+) and lifted with 5 mM EDTA in PBS. Cells were pelleted by centrifugation, resuspended in lysis buffer (10 mM Tris-HCl, pH7.5 containing 1 mM EDTA), homogenized, pelleted by centrifugation, then resuspended in 50 mM Tris-HCl, pH 7.5 and 10% sucrose at 4° C. Protein concentration of the membrane suspension was determined using a Bio-Rad Bradford Protein Assay kit. Membranes were snap frozen and stored at −80° C. Chinese hamster ovary membranes expressing hDAT (CHO-DAT) were purchased from PerkinElmer and stored at −80° C.
(§3) Binding assays were performed in a 96-well assay plate in a total volume of 200 μl assay buffer (50 mM Tris-HCl, 120 mM NaCl, 5 mM KCl, pH 7.4) with 0.5, 1, and 3 μg membrane protein, for SERT, NET and DAT, respectively.
(§4) Stock solutions (10 mM in DMSO) of test compound were prepared and serial dilutions made using Dilution Buffer (50 mM Tris-HCl, 120 mM NaCl, 5 mM KCl, pH 7.4, 0.1% BSA, 400 μM ascorbic acid).
(§5) Following a 60 minute incubation at 22° C. (or a period sufficient to reach equilibrium), the membranes were harvested by rapid filtration over a 96-well UniFilter GF/B plate, pretreated with 0.3% polyethyleneimine, and washed 6 times with 300 μl wash buffer (50 mM Tris-HCl, 0.9% NaCl, pH 7.5 at 4° C.). Plates were dried overnight at room temperature, ˜45 μl of MicroScint™-20 (Perkin Elmer) added and bound radioactivity quantitated via liquid scintillation spectroscopy. Inhibition curves and saturation isotherms were analyzed using GraphPad Prism Software package (GraphPad Software, Inc., San Diego, Calif.). IC50 values were generated from concentration response curves using the Sigmoidal Dose Response (variable slope) algorithm in Prism GraphPad. Kd and Bmax values for the radioligand were generated from saturation isotherms using the Saturation Binding Global Fit algorithm in Prism GraphPad. pKi (negative decadic logarithm of Ki) values for test compounds were calculated from the best-fit IC50 values, and the Kd value of the radioligand, using the Cheng-Prusoff equation (Cheng & Prusoff (1973) Biochem. Pharmacol. 22(23):3099-3108): Ki=IC50/(1+[L]/Kd), where [L]=concentration radioligand.

Assay [2] concerns the target NET (Homo sapiens, UniProt P23975). Briefly: hNET radioligand binding assay (3H-nisoxetine). More on the design: expressed in transfected cells; host or cells: HEK-293. To be noted: hNET membranes (HEK-293), 1.0 nM 3H-nisoxetine; for Ki: read-out: NET pKi (converted). As to the method:
as §1, §2, §3, §4, §5

NET, sequence (P23975 whole entry): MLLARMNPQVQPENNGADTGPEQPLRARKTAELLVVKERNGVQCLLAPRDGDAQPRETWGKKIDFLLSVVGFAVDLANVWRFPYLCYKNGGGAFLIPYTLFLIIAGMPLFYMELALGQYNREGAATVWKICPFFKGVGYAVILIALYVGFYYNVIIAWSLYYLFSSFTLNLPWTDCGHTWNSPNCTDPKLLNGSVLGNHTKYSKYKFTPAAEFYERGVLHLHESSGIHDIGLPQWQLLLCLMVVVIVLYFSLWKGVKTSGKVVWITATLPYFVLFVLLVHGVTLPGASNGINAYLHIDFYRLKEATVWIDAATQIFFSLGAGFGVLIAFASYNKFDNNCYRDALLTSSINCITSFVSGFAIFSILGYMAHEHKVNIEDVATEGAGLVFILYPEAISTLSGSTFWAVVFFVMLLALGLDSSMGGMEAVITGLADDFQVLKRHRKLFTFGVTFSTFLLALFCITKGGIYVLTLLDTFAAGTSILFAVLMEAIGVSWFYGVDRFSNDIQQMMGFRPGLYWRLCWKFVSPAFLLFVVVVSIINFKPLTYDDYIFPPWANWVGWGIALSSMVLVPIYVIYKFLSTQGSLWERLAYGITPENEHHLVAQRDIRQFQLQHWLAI
SERT, sequence (P31645 whole entry): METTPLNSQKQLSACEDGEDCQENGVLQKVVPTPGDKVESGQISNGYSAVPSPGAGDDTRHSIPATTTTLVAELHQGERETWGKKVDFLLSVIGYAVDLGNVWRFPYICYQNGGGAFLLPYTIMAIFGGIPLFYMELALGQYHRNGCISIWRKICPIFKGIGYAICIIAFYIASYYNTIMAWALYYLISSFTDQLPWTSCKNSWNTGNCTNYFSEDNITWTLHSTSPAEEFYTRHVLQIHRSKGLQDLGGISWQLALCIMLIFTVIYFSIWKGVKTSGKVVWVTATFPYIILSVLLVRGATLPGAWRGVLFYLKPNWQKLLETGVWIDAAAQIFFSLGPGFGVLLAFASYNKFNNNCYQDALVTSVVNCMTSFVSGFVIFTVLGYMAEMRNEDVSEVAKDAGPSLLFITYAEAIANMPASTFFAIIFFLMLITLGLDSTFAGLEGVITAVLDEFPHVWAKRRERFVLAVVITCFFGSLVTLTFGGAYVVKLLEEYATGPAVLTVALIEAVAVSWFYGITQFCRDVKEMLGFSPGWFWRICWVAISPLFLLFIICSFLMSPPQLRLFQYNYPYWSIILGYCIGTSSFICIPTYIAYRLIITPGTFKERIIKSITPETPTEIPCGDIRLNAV

For `Fc1cc(Cl)ccc1O[C@@H](c1ncco1)[C@H]1CCNC1.O=C(O)C(F)(F)F` [6-31], the “SERT pKi” value in assay [1] is reported as “≧7.0”. Further, the “NET pKi” value in assay [2] is on record as “≧7.0”.

Regarding `Fc1ccc(O[C@@H](c2ccccc2)C2CCNC2)c2ccccc12` (some centres unmarked) [21-9], the Ki in assay [1] and in assay [2] was ≤ 0.1 µM throughout.

As to `Cc1ccc(OC(c2ccccc2)C2CCNC2)cn1` (centres unmarked) [15-28], the “SERT pKi” value in assay [1] was “≧7.0”. Further, the “NET pKi” value in assay [2] is on record as “≧5.0”.

Take `Clc1cc(Cl)cc(OC(c2ccoc2)C2CCNC2)c1` [Example 9-1, (S)-3-[(R)-(3,5-Dichlorophenoxy)-furan-3-yl-methyl]pyrrolidione]: the Ki in assay [1] and in assay [2] was ≤ 0.1 µM throughout.

Regarding `Cc1cc(Cl)c(O[C@@H](c2ncco2)[C@H]2CCNC2)c(Cl)c1.O=C(O)C(F)(F)F` [6-12], the “SERT pKi” value in assay [1] was “≧7.0”. Besides, the “NET pKi” value in assay [2] is recorded as “≧5.0”.

For the molecule `Fc1cc(F)c(O[C@H](c2ccncc2)[C@H]2CCNC2)c(F)c1` [Example 3-2, 4-[(S)-(S)-Pyrrolidin-3-yl-(2,4,6-trifluorophenoxy)methyl]pyridine], the Ki in assay [1] and in assay [2] was ≤ 0.1 µM throughout.

Consider `Fc1ccc(O[C@@H](c2ccccc2)[C@H]2CCNC2)cn1.O=C(O)C(F)(F)F` [15-27], for which the “SERT pKi” value in assay [1] is listed as “≧7.0”. Further, in assay [2], the “NET pKi” value is given as “≧5.0”.

In the case of `Fc1cc(O[C@@H](c2ccccc2)[C@H]2CCNC2)cnc1F.O=C(O)C(F)(F)F` [15-21], the “SERT pKi” value in assay [1] is listed as “≧5.0”. Besides, the “NET pKi” value in assay [2] was “≧7.0”.

Turning to `Cc1cc(Cl)cnc1O[C@@H](c1cncc(F)c1)[C@H]1CCNC1` [Example 17], the Ki in assay [1] and in assay [2] was ≤ 0.1 µM in each case.

With `Fc1cc(F)c(O[C@@H](c2cccnc2)[C@H]2CCNC2)c(F)c1` [Example 2-68, 3-[(R)-(S)-Pyrrolidin-3-yl-(2,4,6-trifluorophenoxy)methyl]pyridine], the Ki in assay [1] and in assay [2] was ≤ 10 µM throughout.

As to `O=C(O)C(F)(F)F.c1ccc2c(O[C@@H](c3ncco3)[C@H]3CCNC3)cccc2c1` [19-3], the “SERT pKi” value in assay [1] is “≧7.0”. Besides, the “NET pKi” value in assay [2] is “≧7.0”.

Consider `Cc1cc(Cl)c(O[C@@H](c2ncco2)[C@H]2CCNC2)cc1F.O=C(O)C(F)(F)F` [6-24], for which the “SERT pKi” value in assay [1] was “≧7.0”. In assay [2], the “NET pKi” value is “≧7.0”.

Take `Fc1cnc(O[C@H](c2ccccc2)[C@@H]2CCNC2)c(F)c1.O=C(O)C(F)(F)F` [14-16]: the “SERT pKi” value in assay [1] was “≧7.0”. The “NET pKi” value in assay [2] is reported as “≧7.0”.

As for `Fc1cc(Cl)cnc1O[C@@H](c1ccccc1)[C@H]1CCNC1.O=C(O)C(F)(F)F` [14-28], the “SERT pKi” value in assay [1] is “≧7.0”. In addition, in assay [2], the “NET pKi” value is listed as “≧5.0”.

As for `Fc1cc(Cl)ccc1OC(c1nccs1)C1CCNC1` [Example 5-32, 2-[(R)-(4-Chloro-2-fluorophenoxy)-((S)-pyrrolidin-3-yl-methyl]thiazole], the Ki in assay [1] was ≤ 0.1 µM; in assay [2], ≤ 10 µM.

As to `Cc1cc(Cl)cc(C)c1O[C@H](c1cncc(Cl)c1)[C@@H]1CCNC1` [Example 2-29, 3-Chloro-5-[(R)-(4-chloro-2,6-dimethylphenoxy)-(S)-pyrrolidin-3-yl-methy1]-pyridine], the “SERT pKi” value in assay [1] is “≧7.0”. In addition, the “NET pKi” value in assay [2] was “≧5.0”.

For the molecule `Cc1ccccc1O[C@H](c1nccs1)[C@H]1CCNC1` [Example 5-25], the “SERT pKi” value in assay [1] is given as “≧7.0”. The “NET pKi” value in assay [2] was “≧7.0”.

`FC(F)(F)c1cccnc1O[C@H](c1ccccc1)[C@@H]1CCNC1.O=C(O)C(F)(F)F` [14-33]: the “SERT pKi” value in assay [1] is “≧5.0”. In addition, the “NET pKi” value in assay [2] is on record as “≧5.0”.

On to `Clc1ccc(O[C@@H](c2ncco2)[C@H]2CCNC2)cc1.O=C(O)C(F)(F)F` [6-47], for which the “SERT pKi” value in assay [1] is “≧7.0”. Besides, the “NET pKi” value in assay [2] is on record as “≧7.0”.

In the case of `Fc1ccc(F)c(O[C@@H](c2cnccn2)[C@H]2CCNC2)c1Cl.O=C(O)C(F)(F)F` [10-3], the “SERT pKi” value in assay [1] is given as “≧5.0”. In assay [2], the “NET pKi” value is on record as “≧7.0”.

`CC(=O)c1c(O[C@@H](c2ncco2)[C@H]2CCNC2)ccc(Cl)c1Cl.O=C(O)C(F)(F)F` [6-27]: in assay [1], the “SERT pKi” value is on record as “≧7.0”. Further, in assay [2], the “NET pKi” value is given as ~5.0*.

For `Fc1ccc(O[C@H](c2ccccc2)[C@@H]2CCNC2)cn1.O=C(O)C(F)(F)F` [15-26], the “SERT pKi” value in assay [1] is on record as “≧7.0”. In assay [2], the “NET pKi” value is “≧5.0”.

`FC(F)(F)COc1ncccc1O[C@@H](c1ccccc1)[C@H]1CCNC1.O=C(O)C(F)(F)F` [15-11]: the “SERT pKi” value in assay [1] is listed as “≧7.0”. Besides, the “NET pKi” value in assay [2] is recorded as “≧7.0”.

With `Cc1ccc(F)c(O[C@H](c2nccs2)[C@H]2CCNC2)c1Cl` [Example 5-23], the “SERT pKi” value in assay [1] was “≧7.0”. Also, the “NET pKi” value in assay [2] was “≧7.0”.

Regarding `Fc1ccc(F)c(O[C@@H](c2ccco2)[C@H]2CCNC2)c1Cl` [Example 8-1, (S)-3-[(R)-(2-Chloro-3,6-difluorophenoxy)furan-2-yl-methyl]pyrrolidine], the Ki in assay [1] and in assay [2] was ≤ 10 µM throughout.

Regarding `Cc1cc(Cl)ccc1O[C@@H](c1cnccn1)[C@H]1CCNC1.O=C(O)C(F)(F)F` [10-5], the “SERT pKi” value in assay [1] is “≧7.0”. Moreover, the “NET pKi” value in assay [2] is recorded as “≧7.0”.

With `Clc1cccc(O[C@@H](c2ccccc2)[C@H]2CCNC2)n1.O=C(O)C(F)(F)F` [14-9], the “SERT pKi” value in assay [1] is “≧7.0”. For the same molecule, the “NET pKi” value in assay [2] is listed as “≧7.0”.

`Fc1ccc(F)c(OC(c2nccs2)C2CCNC2)c1Cl` [Example 5-16, 2-[((S)-(2-Chloro-3,6-difluorophenoxy)-((S)-pyrrolidin-3-yl-methyl]thiazole]: the Ki in assay [1] and in assay [2] was ≤ 0.1 µM in each case.

`Fc1ccc(OC(c2ccncc2)[C@H]2CCNC2)c(F)c1` (stereo partly drawn) [Example 3-3, 4-[(S)-(2,4-Difluorophenoxy)-pyrrolidin-3-yl-methyl]pyridine]: the Ki in assay [1] and in assay [2] was ≤ 10 µM in each case.

Take `Clc1cc(O[C@@H](c2ccccc2)C2CCNC2)ccn1` (some centres unmarked) [16-3]: the Ki in assay [1] is ≤ 0.1 µM; in assay [2], ≤ 10 µM.

Turning to `Fc1cncc(C(Oc2ccc(Cl)cc2Cc2ccccc2)C2CCNC2)c1` [Example 2-47, 3-[(R)-(2-Benzy1-4-chlorophenoxy)-(S)-pyrrolidin-3-yl-methy1]-5-fluoropyridine], the Ki in assay [1] and in assay [2] was ≤ 0.1 µM each time.

Consider `Fc1cc(F)c(Cl)c(O[C@H](c2cncc(Cl)c2)[C@H]2CCNC2)c1Cl` [Example 2-4, 3-Chloro-5-[(S)-(2,6-dichloro-3,5-difluorophenoxy)-(S)-pyrrolidin-3-yl-methyl]-pyridine], for which the values for the Ki in assay [1] and in assay [2] were ≤ 0.1 µM and ≤ 10 µM, respectively.

Regarding `Brc1ccc(O[C@@H](c2ccccc2)[C@H]2CCNC2)nc1.O=C(O)C(F)(F)F` [14-20], the “SERT pKi” value in assay [1] is listed as “≧7.0”. For the same molecule, the “NET pKi” value in assay [2] is on record as “≧7.0”.

For `Cc1cc(Cl)cc(C)c1OC(c1cncc(F)c1)C1CCNC1` [Example 2-46, 3-[(R)-(4-Chloro-2,6-dimethylphenoxy)-(S)-pyrrolidin-3-yl-methy1]-5-fluoropyridine], the Ki in assay [1] was ≤ 0.1 µM; in assay [2] it was ≤ 10 µM.

For the molecule `Fc1ccc(O[C@@H](c2ccccc2)C2CCNC2)cn1` (some centres unmarked) [15-25], the results for the Ki in assay [1] and in assay [2] were ≤ 0.1 µM and ≤ 10 µM, respectively.

For the molecule `Fc1cncc([C@H](Oc2c(F)cc(F)cc2F)[C@H]2CCNC2)c1` [Example 2-35, 3-Fluoro-5-[(R)-(S)-pyrrolidin-3-yl-(2,4,6-trifluorophenoxy)-methyl]pyridine], the Ki in assay [1] and in assay [2] was ≤ 0.1 µM each time.

Turning to `COc1ccccc1O[C@H](c1cncc(F)c1)[C@H]1CCNC1` [Example 2-63, 3-Fluoro-5-[(S)-(2-methoxyphenoxy)-(S)-pyrrolidin-3-yl-methyl]pyridine], the Ki in assay [1] and in assay [2] was ≤ 10 µM throughout.
